{
  "source": "patent US7009053B2",
  "about": "“Quinoline derivatives as caspase-3 inhibitor, preparation for producing the same and pharmaceutical composition comprising the same” (Yungjin Pharmaceuticals Co., Ltd., priority 2002, dated 2006)",
  "format_in_all_cases": "biochemical",
  "key": {"[1]": {"molecular_target": "T1, Caspase-7 (Homo sapiens, UniProt P55210)", "T1 construct": "purchased BIOMOL Research Laboratories Inc; host or cells: E. coli", "T1 sequence (P55210 24-198 limits assumed)": "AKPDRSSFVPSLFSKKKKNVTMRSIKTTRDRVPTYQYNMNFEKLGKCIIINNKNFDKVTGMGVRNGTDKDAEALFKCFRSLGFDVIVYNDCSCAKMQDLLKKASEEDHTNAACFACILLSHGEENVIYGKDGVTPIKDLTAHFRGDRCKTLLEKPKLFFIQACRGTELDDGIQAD", "T1 sequence (P55210 207-303 limits assumed)": "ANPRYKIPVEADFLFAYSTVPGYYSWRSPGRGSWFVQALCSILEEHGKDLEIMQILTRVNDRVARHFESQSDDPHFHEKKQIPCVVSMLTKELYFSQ", "assay": "Assay of selective inhibitory activity, caspase-7", "details": "read-out: IC50 against caspase-7", "experimental": "(§1) To investigate the selectivity on caspase enzyme subtypes, the inhibitory effects of the compounds of this invention on several other members of the caspase family, caspase-1, 6, 7 and 8 were evaluated.\n(§2) After 1 hr incubation at 37° C., the release of AFC (7-amino-4-trifluoromethyl-coumarin) was monitored in a fluorometric plate reader (Victor 1420). The excitation and emission wavelengths were 400 nm and 510 nm, respectively. Isotherms from three assays were calculated by computerized nonlinear regression analysis (GraphPad Prism Program, San Diego, Calif.) to yield IC50 values. Caspase-1, 6, 7 and 8 were purchased from BIOMOL Research Laboratories Inc. (Plymouth Meeting, Pa., USA).\n(§3) Coumarin-based fluorogenic substrates for each enzyme were obtained from Sigma/RBI (St. Louis, Mo., USA). The compound used in the assay was 8-amino-4-(3-morpholine-4-yl-propylamino)-quinoline-3-carboxylic acid ethyl ester. The enzymatic activity of caspase-1, 6, 7 or 8 was determined by the same procedures as for the caspase-3 assay, except for enzyme or substrate (Table 2)."}, "[2]": {"molecular_target": "T2, Caspase-1 (Homo sapiens, UniProt P29466)", "T2 construct": "purchased BIOMOL Research Laboratories Inc; host or cells: E. coli", "T2 sequence (P29466 120-297 limits assumed)": "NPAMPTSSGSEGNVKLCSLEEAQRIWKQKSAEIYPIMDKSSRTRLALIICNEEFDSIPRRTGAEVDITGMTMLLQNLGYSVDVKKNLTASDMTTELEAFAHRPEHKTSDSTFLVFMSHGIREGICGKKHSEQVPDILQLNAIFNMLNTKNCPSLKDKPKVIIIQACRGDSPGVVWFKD", "T2 sequence (P29466 317-404 limits assumed)": "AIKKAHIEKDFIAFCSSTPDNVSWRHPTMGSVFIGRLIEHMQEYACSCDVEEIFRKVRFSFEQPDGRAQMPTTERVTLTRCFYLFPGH", "assay": "Assay of selective inhibitory activity, caspase-1", "details": "read-out: IC50 against caspase-1", "experimental": "as §1, §2, §3"}, "[3]": {"molecular_target": "T3, human recombinant caspase-3 enzyme (Homo sapiens, UniProt P42574)", "T3 construct": "each cDNA encoding p12 and p17 subunits of caspase-3 was PCR-amplified respectively and subcloned into a pET3-a expression vector; made in house; host or cells: E. coli BL21 (DE3), pET3-a vector", "T3 sequence (P42574 29-175 limits assumed)": "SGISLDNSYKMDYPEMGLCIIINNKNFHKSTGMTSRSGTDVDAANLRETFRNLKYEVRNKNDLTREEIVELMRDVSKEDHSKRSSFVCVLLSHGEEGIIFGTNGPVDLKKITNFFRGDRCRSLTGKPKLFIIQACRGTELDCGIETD", "T3 sequence (P42574 176-277 limits assumed)": "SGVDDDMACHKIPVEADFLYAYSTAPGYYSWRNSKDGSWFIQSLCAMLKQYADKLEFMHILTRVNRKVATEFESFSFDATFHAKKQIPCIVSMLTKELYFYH", "assay": "Enzyme assay of caspase-3 inhibition (fluorogenic Ac-DEVD-AFC substrate)", "details": "for inhibition at 20 µM: caspase-3 activity", "experimental": "The active form of human recombinant caspase-3 enzyme was prepared from Escherichia coli (E.coli) heterologous expression system as described previously (Rotonda J. et al., Nat Struct Biol 3(7): 617–25, 1996). Briefly, each cDNA encoding p12 and p17 subunits of caspase-3 was PCR-amplified respectively and subcloned into a pET3-a expression vector (Novagen), which was followed by transfection into E. coli strain BL21 (DE3). The bacterial cultures (0.5 liters for each transfectant) were grown at 37° C. until logarithmic phase of cell growth and isopropyl-1-thio-β-D-galactopyranoside (IPTC) (Pharmacia) was then added to a final concentration of 0.5 mM. After 3 hr of incubation, the bacteria were pelleted and lysed in a lysis buffer (20 mM Tris hydrochloride pH 8.0, 1 mM EDTA, 2 mM dithiothreitol (DTT), 100 mM NaCl, 200 ug/ml of lysozyme) through sonication. After centrifugation, the pellets from each transfectants were dissolved in 6 M urea and were mixed and rapidly diluted 50 fold in 100 mM HEPES/KOH (pH 7.5), 10% sucrose, 0.1% CHAPS, 0.5 M NaCl, 10 mM DTT. The concentration of protein was determined with the Bradford method (Bio-Rad), with bovine serum albumin as the standard. To verify whether expected size of proteins were obtained, the cell lysates from each cDNA transfectants were analyzed on 14% SDS PAGE and visualized with Coomassie blue staining.\n200 ul of the following assay solution was contained in each well of 96-well plate: 20 mM HEPES/KOH (pH 7.5), 10% sucrose, 10 mM DTT, 0.2 mM EDTA, 0.1% CHAPS, 200 ng of enzymes, and 2.5 uM of the substrate. The fluorogenic substrate […]-Asp-Glu-Val-Asp-7-amino-4-trifluoromethylcoumarin (Ac-DEVD-AFC) was purchased from Sigma (St Louis, Mo.) and dissolved in DMSO as a 2.5 mM stock solution and kept at −20° C. before use.\nAfter 1 hr incubation at 37° C., the release of AFC (7-amino-4-trifluoromethyl-coumarin) was monitored in a fluorometric plate reader (Victor 1420). The excitation and emission wavelengths were 400 nm and 510 nm, respectively. The inhibitory effects of compounds on enzyme activities were determined with 2, 20 or 200 uM concentrations of the test compound run in triplicate tubes, and isotherms from three assays were calculated by computerized nonlinear regression analysis (GraphPad Prism Program, San Diego, Calif.) to yield IC50 values."}, "[4]": {"molecular_target": "T4, Caspase-6 (Homo sapiens, UniProt P55212)", "T4 construct": "purchased BIOMOL Research Laboratories Inc; host or cells: E. coli", "T4 sequence (P55212 24-179 limits assumed)": "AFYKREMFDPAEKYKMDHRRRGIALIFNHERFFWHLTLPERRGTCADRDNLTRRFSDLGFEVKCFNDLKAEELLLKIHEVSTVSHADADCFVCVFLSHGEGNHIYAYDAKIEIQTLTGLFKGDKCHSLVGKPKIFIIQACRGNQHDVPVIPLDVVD", "T4 sequence (P55212 194-293 limits assumed)": "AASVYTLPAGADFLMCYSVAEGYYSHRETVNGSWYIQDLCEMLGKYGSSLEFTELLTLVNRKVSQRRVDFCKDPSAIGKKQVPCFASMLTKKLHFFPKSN", "assay": "Assay of selective inhibitory activity, caspase-6", "details": "read-out: IC50 against caspase-6", "experimental": "as §1, §2, §3"}, "[5]": {"molecular_target": "T5, Caspase-8 (Homo sapiens, UniProt Q14790)", "T5 construct": "purchased BIOMOL Research Laboratories Inc; host or cells: E. coli", "T5 sequence (Q14790 217-374 limits assumed)": "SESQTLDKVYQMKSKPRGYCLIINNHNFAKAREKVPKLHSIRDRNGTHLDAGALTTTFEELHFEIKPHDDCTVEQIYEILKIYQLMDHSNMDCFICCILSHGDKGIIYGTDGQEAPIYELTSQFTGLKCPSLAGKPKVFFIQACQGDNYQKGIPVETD", "T5 sequence (Q14790 385-479 limits assumed)": "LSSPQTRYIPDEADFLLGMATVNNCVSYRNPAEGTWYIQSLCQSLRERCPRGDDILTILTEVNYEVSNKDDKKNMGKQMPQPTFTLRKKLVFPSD", "assay": "Assay of selective inhibitory activity, caspase-8", "details": "read-out: IC50 against caspase-8", "experimental": "as §1, §2, §3"}},
  "note": "Where two headings read alike, the source gives them in different places.",
  "data": [
    {"molecule": "CCOC(=O)c1cnc2c(N)cccc2c1NCCCN1CCOCC1", "note": "[Example 22, 8-Amino-4-(3-morpholin-4-yl-propylamino)-quinoline-3-carboxylic acid ethyl ester]", "values": [
      {"measurement": "IC50", "setting": "[1]", "value": 14.7, "unit": "µM"},
      {"measurement": "IC50", "setting": "[2]", "value": "≥ 200", "unit": "µM"},
      {"measurement": "IC50", "setting": "[3]; caspase-3, Table 1, tested at 2, 20 or 200 uM, read-out: IC50", "value": 13.8, "unit": "µM"},
      {"measurement": "inhibition at 20 µM", "setting": "[3]", "value": 92.3, "unit": "%"},
      {"measurement": "inhibitory activity against caspase-3 (in words)", "setting": "[3]; compared to the reference compound", "value": "superior activity"},
      {"measurement": "IC50", "setting": "[3]; selectivity study, text b424, read-out: IC50 against caspase-3", "value": 5.6, "unit": "µM"},
      {"measurement": "IC50", "setting": "[4]", "value": "≥ 200", "unit": "µM"},
      {"measurement": "IC50", "setting": "[5]", "value": "≥ 200", "unit": "µM"}
    ]},
    {"molecule": "CCCOC(=O)c1cnc2c(N)cccc2c1NCc1ccccn1", "note": "[Example 60, 8-Amino-4-[(pyridine-2-ylmethyl)-amino]-quinoline-3-carboxylic acid propyl ester]", "values": [
      {"measurement": "inhibition at 20 µM", "setting": "[3]", "value": 76.8, "unit": "%"}
    ]}
  ]
}
